According to patent US10800812B2, “Compstatin analogs with increased solubility and improved pharmacokinetic properties” (The Trustees of the University of Pennsylvania, priority 2018, dated 2020):
Where “and” joins values, the source holds several entries; their conditions need not be identical. Equal entries are not always repeated. Where two headings read alike, the source gives them in different places. Marks after values point to notes of the source that are not given here.

Legend:
[1] = Plasma concentration after multiple injections in NHP; type: in vivo, cynomolgus monkeys; details: cynomolgus monkey, sc
[2] = Residence time in the vitreous after intravitreal injection (WES / SPR competition assay); type: in vivo, cynomolgus monkeys; design: detection in the vitreous: dose or concentration left out as unconfirmed; details: for detection in the vitreous at time points post-injection: days 14-90
Experimental: To determine the residence time of mPEG(3k)-Cp40, mPEG(1k)-Cp40, Cp40-KK, and Cp40-KKK in the vitreous of cynomolgus macaques, these Cp40-based analogs were administered intravitreally (i.v.t.) to the animals after induction of light ketamine anesthesia (10-15 mg/kg, by intramuscular injection (i.m.)) and dilation of the pupils with tropicamide/phenylephrine ophthalmic solution (see Table 6 for study design).
For i.v.t. injection, the cynomolgus monkeys were anesthetized with a combination of ketamine (15-25 mg/kg, i.m.) and xylazine (2 mg/kg, i.m.) and the eye was cleaned with povidone-iodine solution. After application of oxybuprocaine hydrochloride solution (Benoxil® ophthalmic solution 0.4%) to the cornea as a local anesthetic, the Cp40-based analogs were administered to the animals by i.v.t. injection into either the right (G1, G3) or left (G2, G4) eye of each animal. Immediately following each injection, a single topical dose of 0.5% levofloxacin was administered. After i.v.t. injection of mPEG(3k)-Cp40, mPEG(1k)-Cp40, Cp40-KK, and Cp40-KKK, vitreous fluid samples (about 50 μL each) were withdrawn from Cp40-based analog-treated eyes on days 14, 28, 42, (G1, G2, G3, G4), 56, 73, 90 (G1, G2) (this was done either three times or six times). Samples were collected on ice and stored in a deep freezer (−79.3 to −68.5° C.) until further analysis. On day 73 and 90, about 100 μL of vitreous fluid from G1 and G2 were withdrawn. Presence and concentration of the Cp40-based analogs was determined using either the simple western technology (WES, ProteinSimple, San Jose, Calif.), or surface plasmon resonance (SPR)-based real-time measurement of binding kinetics on a Cp40-KKK immobilized chip (see detailed methods below). Similar results with regard to the intravitreal residence time and concentration levels of the test compounds were obtained regardless of the quantification method selected.
To quantify the levels of all test compounds in vitreous samples collected at different time points following i.v.t. injection (see FIG. 15), WES analysis was performed on a WES instrument (ProteinSimple, San Jose, Calif.) using a 2 to 40 kDa Separation Module and Anti-Rabbit Detection Module according to the manufacturers' instructions. In brief, undiluted eye vitreous samples were mixed with a Fluorescent Master Mix and heated at 95° C. for 5 min. The samples, blocking reagent, primary antibodies (in house developed anti-Cp40; 1:1000 in blocking reagent), HRP-conjugated secondary antibody (anti-rabbit IgG) and chemiluminescent substrate were pipetted into the plate (part of Separation Module). The used instrument settings were: stacking and separation at 375 V for 27 min; blocking reagent for 30 min, primary and secondary antibody both for 30 min; Luminol/peroxide chemiluminescence detection for ˜15 min (exposures of 5, 15, 30, 60, 120, 240, and 480 s). The resulting electropherograms were evaluated using the Compass software (ProteinSimple, San Jose, Calif.). The following criteria were used to discriminate low peptide signals from background: The peak signal-to-noise (S/N) ratio given by the software must be ≥10, and the peak height/baseline ratio (calculated manually from the peak height and baseline values given by the software) must be equal to or greater than 3. A five-point standard curve of known concentrations (100-2,000 nM) of peptide spiked in rabbit vitreous was used to calculate peptide concentration in the vitreous samples using the Compass software (Compass Software Inc., Atlanta, Ga.). […] Shown in FIG. 15 is a representative standard curve generated using the WES system and bands obtained upon running pre-determined amounts of purified peptide spiked into rabbit vitreous samples.
To corroborate the WES-based measurements for all test compounds, an SPR-based competition assay was developed for detecting Cp40 and Cp40 analogs in biological samples. […] The samples were heated at 95° C. for 5 min. […]

[3] = system: classical pathway activation (C3b deposition); test: Classical pathway activation ELISA (C3b deposition) with or without rabbit vitreous; type: biochemical, human; details: in the absence of vitreous
Experimental: An alternative explanation to the one presented above is that the vitreous contains additional unidentified factors that associate with the Cp40-KKK analog. To investigate whether an unidentified vitreous factor impacts the complement inhibitory activity of lysine containing compounds, complement activation assays were performed using vitreous samples. Briefly, human plasma was incubated with OVA-anti-OVA immune-complexes in the presence of serial dilutions of the Cp40-based analogs mixed with rabbit vitreous. Levels of classical pathway activation (C3b deposition) were determined by ELISA using a polyclonal anti-human C3 antibody conjugated with HRP (MP Biomedicals, Solon, Ohio) (FIG. 20).

C3 [4] = target: C3 (Homo sapiens, UniProt P01024); details: Qu et al. 2013; cited from earlier work
in vivo [5] = details: male, cynomolgus monkey, sc, 2 mg/kg, t1/2
in vivo [6] = details: cynomolgus monkey, im, 25 mg/kg
physchem = details: pH 7.4, Conc. (solubility in PBS)
[7] = Solubility of Cp40-based analogs in PBS
[8] = Pharmacokinetics in NHP plasma after single s.c. injection; details: for AUC(0-t): AUC0-t (0-120 h); for AUC(0-inf): AUCinf
human C3b = target: T1, human C3b (Homo sapiens, UniProt P01024); test: SPR binding affinity and kinetics with C3b; details: 25° C., 1:1 Langmuir model; read-out: ka, association constant
T1 construct: purchased Complement Technology, Inc., Tyler, Tex

[9] = Lys cleavage fragments in NHP plasma after s.c. injection (UPLC-ESI-MS); type: in vivo, cynomolgus monkeys; details: after s.c. 2 mg/kg Cp40-KKK, both animals
[10] = Pharmacokinetics after single i.v. injection; design: species or system cynomolgus monkeys; details: cynomolgus monkey, in vivo, iv
Experimental: In vivo pharmacokinetic studies were conducted, in which cynomolgus monkeys were administered single i.v. injections of mPEG(1k)-Cp40, mPEG(3k)-Cp40, Cp40-KK, or Cp40-KKK.

purified human C3b = target: T2, purified human C3b (Homo sapiens, UniProt P01024); test: SPR C3b binding of Cp40-KKK in vitreous samples; details: for C3b-binding signal: day 14
T2 construct: purchased Complement Technology, Inc., Tyler, Tex
Experimental: To confirm that the compound present in the NHP vitreous maintains C3b-binding activity, which is a prerequisite for eliciting its inhibitory action across all complement pathways, surface plasmon resonance (SPR) binding experiments were conducted. Briefly, for a positive binding control, serial dilutions of Cp40-KKK (16, 8, 4, and 2 nM) were added to rabbit vitreous samples and flowed onto a Biacore CM5 chip immobilized with purified human C3b (Complement Technology Inc, Tyler, Tex.) (see FIG. 19A). Next, vitreous samples were collected from a Cp40-KKK injected eye at day 14 post-injection and subjected to heat-inactivation at 95° C. for 5 min. Both heat-inactivated and non-heat-inactivated samples were flowed onto a CM5 chip immobilized with purified human C3b as indicated above (FIG. 19B).

[11] = Pharmacokinetics after single i.m. injection; details: cynomolgus monkey, in vivo, im, 25 mg/kg
C3 [12] = test: C3 saturation in NHP plasma after single s.c. injection; type: in vivo, cynomolgus monkeys (Macaca fascicularis); details: single s.c. 2 mg/kg
[13] = cynomolgus monkey, in vivo, sc, 2 mg/kg
[14] = at the solubility concentration
[15] = male, cynomolgus monkey, plasma, sc, 2 mg/kg, single s.c. 2 mg/kg, NHP plasma, two animals
[16] = male, cynomolgus monkey, plasma, sc, 2 mg/kg, Cmax, single s.c. 2 mg/kg, NHP plasma, two animals
[17] = single s.c. 2 mg/kg, NHP plasma, two animals, 2 mg/kg
[18] = single s.c. 2 mg/kg, NHP plasma, two animals, listed as Cp40-KKK (SUM), 2 mg/kg

T2 sequence (P01024 23-667 limits assumed): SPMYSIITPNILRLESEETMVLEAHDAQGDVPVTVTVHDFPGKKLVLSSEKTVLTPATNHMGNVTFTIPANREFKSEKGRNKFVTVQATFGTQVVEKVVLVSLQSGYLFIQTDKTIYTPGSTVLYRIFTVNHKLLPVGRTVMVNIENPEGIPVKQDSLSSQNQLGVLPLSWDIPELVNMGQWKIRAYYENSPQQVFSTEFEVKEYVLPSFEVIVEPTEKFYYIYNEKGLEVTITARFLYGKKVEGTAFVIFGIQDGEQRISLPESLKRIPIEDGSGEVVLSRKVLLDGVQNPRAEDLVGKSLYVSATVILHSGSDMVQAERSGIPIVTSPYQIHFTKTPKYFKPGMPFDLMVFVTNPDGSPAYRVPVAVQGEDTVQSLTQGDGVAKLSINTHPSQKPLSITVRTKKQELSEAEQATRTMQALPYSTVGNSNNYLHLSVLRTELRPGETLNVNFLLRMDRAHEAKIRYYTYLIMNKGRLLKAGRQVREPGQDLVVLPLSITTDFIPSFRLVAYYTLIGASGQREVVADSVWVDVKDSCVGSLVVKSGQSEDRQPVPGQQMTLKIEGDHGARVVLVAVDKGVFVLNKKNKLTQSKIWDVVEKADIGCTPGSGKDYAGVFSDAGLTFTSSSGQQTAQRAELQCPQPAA
T2 sequence (P01024 749-1663 partner limits assumed): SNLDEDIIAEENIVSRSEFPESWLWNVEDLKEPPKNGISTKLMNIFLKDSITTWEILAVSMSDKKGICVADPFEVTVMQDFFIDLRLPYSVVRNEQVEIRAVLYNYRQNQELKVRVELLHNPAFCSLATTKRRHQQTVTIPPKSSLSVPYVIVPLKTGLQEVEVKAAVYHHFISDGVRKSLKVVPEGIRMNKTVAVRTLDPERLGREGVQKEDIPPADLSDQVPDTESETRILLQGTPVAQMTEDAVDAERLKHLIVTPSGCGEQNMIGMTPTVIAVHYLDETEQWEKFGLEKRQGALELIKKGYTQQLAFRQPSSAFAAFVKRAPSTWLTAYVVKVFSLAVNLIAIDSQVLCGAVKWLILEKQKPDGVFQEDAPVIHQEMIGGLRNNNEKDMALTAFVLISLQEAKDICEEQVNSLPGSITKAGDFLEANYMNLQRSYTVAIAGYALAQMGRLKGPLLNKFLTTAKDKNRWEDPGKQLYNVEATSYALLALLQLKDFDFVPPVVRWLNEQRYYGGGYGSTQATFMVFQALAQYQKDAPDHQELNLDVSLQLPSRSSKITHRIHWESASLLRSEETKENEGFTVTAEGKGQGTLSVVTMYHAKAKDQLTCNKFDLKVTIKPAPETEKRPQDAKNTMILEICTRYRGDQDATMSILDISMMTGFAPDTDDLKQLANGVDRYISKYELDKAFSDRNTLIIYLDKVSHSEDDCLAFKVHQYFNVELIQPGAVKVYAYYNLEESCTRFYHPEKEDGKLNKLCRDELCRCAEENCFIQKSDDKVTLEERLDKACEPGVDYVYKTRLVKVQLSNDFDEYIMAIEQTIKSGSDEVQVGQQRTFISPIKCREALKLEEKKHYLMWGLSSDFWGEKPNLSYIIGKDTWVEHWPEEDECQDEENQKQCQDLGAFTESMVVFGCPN
Sequence of C3 (Homo sapiens, UniProt P01024) (P01024 23-1663): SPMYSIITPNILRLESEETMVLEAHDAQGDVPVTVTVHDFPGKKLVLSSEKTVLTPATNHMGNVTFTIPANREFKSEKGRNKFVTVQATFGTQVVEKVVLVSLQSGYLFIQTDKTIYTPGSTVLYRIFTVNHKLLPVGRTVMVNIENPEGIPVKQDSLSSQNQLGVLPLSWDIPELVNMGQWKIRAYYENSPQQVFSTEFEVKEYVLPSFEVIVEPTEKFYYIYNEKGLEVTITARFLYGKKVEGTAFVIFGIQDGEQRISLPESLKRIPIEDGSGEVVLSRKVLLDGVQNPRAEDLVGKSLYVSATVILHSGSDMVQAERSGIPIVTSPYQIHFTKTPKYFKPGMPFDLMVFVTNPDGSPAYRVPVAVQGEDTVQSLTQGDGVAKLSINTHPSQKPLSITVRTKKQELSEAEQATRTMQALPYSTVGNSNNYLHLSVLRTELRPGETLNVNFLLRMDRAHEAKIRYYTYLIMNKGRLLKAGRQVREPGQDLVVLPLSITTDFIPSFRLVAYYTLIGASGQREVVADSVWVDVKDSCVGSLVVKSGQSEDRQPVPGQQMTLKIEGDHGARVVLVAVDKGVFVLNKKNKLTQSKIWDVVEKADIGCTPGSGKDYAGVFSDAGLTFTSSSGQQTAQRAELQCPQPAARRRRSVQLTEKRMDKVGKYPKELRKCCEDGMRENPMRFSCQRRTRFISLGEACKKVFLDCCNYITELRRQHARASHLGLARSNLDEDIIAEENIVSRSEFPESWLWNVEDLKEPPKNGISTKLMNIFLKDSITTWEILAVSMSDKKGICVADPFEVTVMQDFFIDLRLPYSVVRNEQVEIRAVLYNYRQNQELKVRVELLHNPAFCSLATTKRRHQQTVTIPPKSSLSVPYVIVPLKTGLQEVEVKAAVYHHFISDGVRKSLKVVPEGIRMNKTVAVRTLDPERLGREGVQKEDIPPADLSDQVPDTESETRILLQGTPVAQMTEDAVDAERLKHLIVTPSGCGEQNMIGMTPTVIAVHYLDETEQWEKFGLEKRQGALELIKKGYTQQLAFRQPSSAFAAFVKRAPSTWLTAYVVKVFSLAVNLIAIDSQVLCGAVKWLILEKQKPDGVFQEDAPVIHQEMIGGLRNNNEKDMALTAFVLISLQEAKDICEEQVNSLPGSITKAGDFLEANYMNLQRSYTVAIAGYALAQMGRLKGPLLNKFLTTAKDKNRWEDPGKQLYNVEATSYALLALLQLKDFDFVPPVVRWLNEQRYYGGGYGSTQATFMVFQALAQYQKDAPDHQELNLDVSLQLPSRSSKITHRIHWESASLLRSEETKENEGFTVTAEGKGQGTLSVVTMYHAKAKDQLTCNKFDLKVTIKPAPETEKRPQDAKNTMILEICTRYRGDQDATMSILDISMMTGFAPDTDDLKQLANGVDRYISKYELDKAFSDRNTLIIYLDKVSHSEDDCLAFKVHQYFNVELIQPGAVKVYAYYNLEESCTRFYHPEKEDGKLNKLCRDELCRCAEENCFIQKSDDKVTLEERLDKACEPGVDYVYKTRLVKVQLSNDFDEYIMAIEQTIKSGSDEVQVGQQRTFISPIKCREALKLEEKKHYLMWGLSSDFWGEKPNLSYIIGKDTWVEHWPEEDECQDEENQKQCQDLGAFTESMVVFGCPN
T1 sequence (P01024 23-667 limits assumed): as the sequence (P01024 23-667 limits assumed) above
T1 sequence (P01024 749-1663 partner limits assumed): as the sequence (P01024 749-1663 partner limits assumed) above

For `CC[C@H](C)[C@H](NC(=O)[C@H](N)Cc1ccc(O)cc1)C(=O)N[C@H]1CSSC[C@@H](C(=O)N(C)[C@H](C(N)=O)[C@@H](C)CC)NC(=O)[C@H](CCCNC(=N)N)NC(=O)[C@H](Cc2c[nH]cn2)NC(=O)[C@H](C)NC(=O)CN(C)C(=O)[C@H](Cc2c[nH]c3ccccc23)NC(=O)[C@H](CC(=O)O)NC(=O)[C@H](CCC(N)=O)NC(=O)[C@H](Cc2cn(C)c3ccccc23)NC(=O)[C@H](C(C)C)NC1=O` [Cp40, DTyr-Ile-[Cys-Val-Trp(Me)-Gln-Asn-Trp-Sar-Ala-His-Arg-Cys]-mIle-NH2, reference compound], the Cmax ([1]; in vivo, 4 mg/kg) was 8 to 10 µM, the “detection in the vitreous” value ([2]; Cp40 i.v.t administered) was “no detection of any compound was observed after one month” and the “complement classical pathway inhibitory activity” value [3] was “inhibitory activity in a dose-dependent manner”. The “binding affinity for C3” value (C3 [4]) was “subnanomolar”, the “binding affinity for C3 higher than that of the parent peptide” value (C3 [4]) was ~6,000 fold and the half-life (in vivo [5]) was 41 h. For the same molecule, the half-life (in vivo [6]) was roughly 192 h, the solubility (physchem) was no less than 1.08 mg/mL and the “pH of the peptide solution in PBS” value [7, 14] was 7.5. It also gave an AUC(0-t) [8, 15] of 233 µM·h, an AUC(0-inf) [8, 15] of 263 µM·h and a Cmax [8, 16] of 6.2 µM. The Tmax ([8]; male, cynomolgus monkey, plasma, sc, 2 mg/kg, tmax, single s.c. 2 mg/kg, NHP plasma, two animals) was 2 h, the “AUC0-t (0-120 h)” value [8, 17] was 218 µM·h and the AUCinf [8, 17] was 255 µM·h. It also gave a Cmax [8, 17] of 5.53 µM.
With `CC[C@H](C)[C@H](NC(=O)[C@H](N)Cc1ccc(O)cc1)C(=O)N[C@H]1CSSC[C@@H](C(=O)N(C)[C@H](C(=O)N[C@@H](CCCCN)C(=O)N[C@@H](CCCCN)C(=O)N[C@@H](CCCCN)C(N)=O)[C@@H](C)CC)NC(=O)[C@H](CCCNC(=N)N)NC(=O)[C@H](Cc2c[nH]cn2)NC(=O)[C@H](C)NC(=O)CN(C)C(=O)[C@H](Cc2c[nH]c3ccccc23)NC(=O)[C@H](CC(=O)O)NC(=O)[C@H](CCC(N)=O)NC(=O)[C@H](Cc2cn(C)c3ccccc23)NC(=O)[C@H](C(C)C)NC1=O` [Cp40-KKK, DTyr-Ile-[Cys-Val-Trp(Me)-Gln-Asn-Trp-Sar-Ala-His-Arg-Cys]-mIle-Lys-Lys-Lys-NH2] the kon (human C3b) was 3.83e+06 M⁻¹ s⁻¹, the “concentration of intact Cp40-KKK in plasma at any time point” value [9] was no more than 2 µM and the Cmax ([1]; plasma, 2 mg/kg every 48 hrs, read-out: observed Cmax after multiple s.c. dosing) was no less than 20 µM. The “Lys cleavage in plasma upon i.v. injection” value [10] was “metabolized into Cp40-KK and small amounts of Cp40-K”, the half-life ([10]; single i.v. injection 2 mg/kg) was 35.3 h and the AUC(0-t) ([10]; single i.v. injection 2 mg/kg, read-out: AUC 0-120) was 312 µM·h. The intravitreal residence time ([2]; after i.v.t.) was no less than 3 months, the “vitreous residence time at C3 saturating levels” value ([2]; single i.v.t. injection 0.5 mg) was no less than 90 days and the “detection in the vitreous at time points post-injection” value ([2]; single i.v.t. injection 0.5 mg) was “detected even at day 90 post-treatment”. The C3b-binding signal (purified human C3b; heat-inactivated vitreous sample) was 10 relative units, the C3b-binding signal (purified human C3b; non-heat inactivated vitreous sample) was 2 relative units and the “binding to C3b” value (purified human C3b; spiked into rabbit vitreous, 2-16 nM) was “binds to C3b in a dose-dependent manner”. For the same molecule, the “C3b-binding activity of compound present in NHP vitreous” value (purified human C3b; vitreous from injected eye, day 14 post-injection) was “maintains its C3b-binding activity”, the “complement classical pathway inhibitory activity” value [3] was “inhibitory activity in a dose-dependent manner” and the “pH of the peptide solution in PBS” value ([7]; after additional lyophilization from H2O) was 9.5. For the same molecule, the “pH of the peptide solution in PBS” value [7, 14] was 8.5, the “pH of the peptide solution in PBS” value ([7]; pH adjusted upon addition of PBS) was 7.5* and the half-life [11] was roughly 192 h. It also gave a CL/F ([8]; male, cynomolgus monkey, plasma, sc, 2 mg/kg) of roughly 45 mL/min/kg, an AUC(0-t) [8, 15] of roughly 616 µM·h and an AUC(0-inf) [8, 15] of 805 µM·h. For the same molecule, the Cmax [8, 16] was roughly 13.5 µM, the half-life ([8]; male, cynomolgus monkey, plasma, sc, 2 mg/kg, t1/2, single s.c. 2 mg/kg, NHP plasma, two animals) was roughly 44.3 h and the “AUC0-t increased vs Cp40” value ([8]; s.c. 2 mg/kg) was roughly 2.6 fold. For the same molecule, the “CL/F decreased vs Cp40” value ([8]; s.c. 2 mg/kg) was roughly 3 fold, the “cmax higher than Cp40” value ([8]; s.c. 2 mg/kg) was roughly 2 fold and the t1/2 [8, 17] was 42 h and 47 h. For the same molecule, the “AUC0-t (0-120 h)” value [8, 18] was 658 µM·h and 573 µM·h, the AUCinf [8, 18] was 685 µM·h and the Cmax [8, 18] was 11.9 µM and 15.1 µM. For the same molecule, the t1/2 [8, 18] was 46.7 h and 41.8 h.
For “mPEG(3k)-Cp40: N-terminus of Cp40 coupled to polydisperse PEG chain of 3 kDa via amide coupling”, the “C3 saturation time (peptide above plasma level of C3)” value (C3 [12]) was roughly 34 h, the “detection in the vitreous at time points post-injection” value ([2]; single i.v.t. injection 0.5 mg) was “detected at day 14 post injection but not in later time points” and the CL/F [13] was roughly 43.5 mL/min/kg. For the same molecule, the “Conc. (solubility in PBS)” value ([7]; PBS (pH 7.4)) was 270 mg/mL and the “pH of the peptide solution in PBS” value [7, 14] was 7.
